Paper PMC5507300, “Antibacterial small molecules targeting the conserved TOPRIM domain of DNA gyrase” (PLoS ONE, 2017)
≈ marks a conversion by molar mass, not a printed value.

Tests used:
Format in all cases: cell-based
[1] = test system: E. coli BW25113 ΔtolC/ΔyacG; assay: Broth microdilution MIC, E. coli BW25113 ΔtolC/ΔyacG
Procedure: (§1) Compound doubling dilutions were prepared in 100% DMSO (Sigma Aldrich) and 2 μL of each dilution was transferred to a 96-well plate with lid (Thermo Scientific). Inoculum for all MIC testing was prepared using the BBL Prompt Inoculation System (Becton Dickinson, Franklin Lakes, NJ USA) as described by the manufacturer to produce a suspension of cells at approximately 1.5 x 10^8 colony forming units (CFU)/mL [34–36] and a further dilution (1:1000) was made into cation adjusted Mueller-Hinton broth (CAMH broth, Becton-Dickinson). One hundred μL of this inoculum were then transferred to each well of the 96-well plate containing diluted compound (above). Plates were covered and incubated overnight (18 hrs.) at 37°C.
The yacG deletion allele from the Keio collection was amplified by PCR (primers: […] and […]) and moved to BW25113 ΔtolC as described below. The E. coli strain BW25113 ΔtolC containing pKD46 [25] was used to inoculate SOB (Invitrogen)/0.2% w/v arabinose (Sigma Aldrich)/ampicillin (100 μg/mL) and grown overnight at 30°C. The overnight culture was then diluted 1/40 into 20 mL fresh SOB/0.2% w/v arabinose/ampicillin (100 μg/mL) and grown at 30°C while shaking for ~3 hrs until OD600 = 0.5. Cells were pelleted by centrifugation at 4000 rpm for 10 min, washed with 40 mL ice cold sterile, distilled H2O, then 3 x 1 mL ice cold 10% glycerol followed by centrifugation at 5000 g for 3 minutes. The pellet was resuspended in 100 μL of 10% glycerol (1/200 of starting culture). For transformation, 5 μL of gel purified PCR product was added to 50 μL cells, mixed, and immediately electroporated in a 0.2 cm gap cuvette at 2.5kV, 25 μF, 200 Ω (BioRad, Hercules, CA USA). Electroporated cells were recovered in 1 mL SOC (Invitrogen)/0.2% arabinose at 37°C for 2 hours with shaking. Cells in amounts of 50 and 950 μL were then plated on LB agar supplemented with kanamycin (25 μg/mL) and incubated overnight at 37°C. Correct gene replacements were verified by PCR.

[2] = test system: E. coli HS151 (qnrVC); assay: Broth microdilution MIC, E. coli HS151 (qnrVC)
Source text: E. coli HS151 (ΔtolC) has been described previously. Gyrase inhibitor-resistant isolates (GYR101-108) were derived by selection for spontaneous resistance to MRL-770 or MRL-423 (Fig 1) in E. coli HS151 as described below. E. coli BW25113 and the Keio gene deletion collection based on BW25113 [25] were obtained from Thermo Fisher Scientific (Waltham, MA) and described in [26]. The plasmid-borne FQ resistance determinant, qnrVC3 [27], was kindly provided by D. Hooper (Massachusetts General Hospital). MB9796 (A. baumannii) is a derivative of MB9797 (ATCC19606) lacking lipopolysaccharide. The efflux-defective P. aeruginosa strain MB5890 (CB398) is a derivative of MB5919 (PAO1). MB2884 (E. coli) and CL15245 (K. pneumoniae) are clinical isolates from the Merck & Co., Inc., Kenilworth, NJ, USA, strain collection. S. aureus COL is a methicillin-resistant clinical isolate.
as §1

[3] = test system: E. coli HS151; assay: In vitro time-dependent bactericidal study
Procedure: A culture of E. coli HS151 in CAMH broth was grown overnight (18 hrs.) at 37°C, diluted 1:10,000 in 200 mL of fresh CAMH broth and further incubated for 1 hour at 37°C with shaking. A time-zero sample was then removed and 20 mL portions of the remaining culture were transferred into 125 mL vented flasks to which were added MRL-1082 or control antibiotics, at the indicated concentrations. These flasks were then incubated at 37°C with shaking (70 rpm). Samples were withdrawn at the indicated times, plated on blood agar (trypticase soy agar with 5% sheep blood, Becton-Dickinson) and, following overnight growth at 37°C, colonies were counted to determine CFU/mL.

| SMILES | effect of deletion of yacG on potency ([1]; E. coli BW25113 (ΔtolC) ΔyacG) | MIC ([1]; Escherichia coli, BW25113) [µg/mL] | resistance conferred by qnrVC3 expression ([2]; E. coli HS151 with plasmid qnrVC3 vs HS151) | MIC ([2]; Escherichia coli) [µg/mL] | reduction in culture viability ([3]; E. coli HS151, 2XMIC or greater, following 2–4 hours of treatment) | culture viability, below lower limit of quantitation ([3]; E. coli HS151, 4-8XMIC, after 8 hours) [CFU/mL] | MIC ([3]; Escherichia coli, HS151, 24 h, read-out: MIC of isolates from treated culture) [µg/mL] |
| --- | --- | --- | --- | --- | --- | --- | --- |
| Cn1ncc2cc(-c3cnnn3C3CCN(C(=O)Nc4cc(Cl)cc(Cl)c4)CC3)ccc21 [MRL-423] | does not affect the potency | 0.25 (≈ 0.532 µM) | no effect | 0.25 (≈ 0.532 µM) | – | – | – |
| Cn1ncc2cc(-c3nnnn3C3CCN(C(=O)Nc4ccc(Cl)c(Cl)c4)CC3)ccc21 [MRL-1082] | – | – | – | – | greater than 3 log | < 20 | 0.0625 |
